Tested on: Jurkat cells
Assay: Cytotoxicity of compounds, CellTiter-Glo
Format: cell-based, Human
Details: Homo sapiens, Jurkat, Table 3; Cytotoxicity of Compounds on Jurkat Cells; read-out: EC50
Source text: Cell lines used: Human T-cell leukemia cell line Jurkat (ATCC: TIB-152); HCC1954 (ATCC: CRL. 2338); Human Pancreatic cells lines: AsPC-1 (ATCC: CRL-1682), BxPC-3 (ATCC: CRL.1687), HPAF-II (ATCC: CRL.1997), MiaPaCa2 (ATCC: CRL.1420), PANC-1 (ATCC: CRL.1469), Capan-1 (ATCC: HTB-79), Capan-2 (ATCC: HTB-80) and the Human gastric carcinoma cell line NCI-N87 (ATCC: CRL. 5822); AML-193 (ATCC: CRL.9589), CCRF-CEM (ATCC: CCL-119), DU145 (ATCC: HTB-81), PC-3 (ATCC: CRL.1435), A-431 (ATCC: CRL.1555), HT-29 (ATCC: HTB-38), A-172 (ATCC: CRL.1620), NCI-H358 (ATCC: CRL.5807), A549 (ATCC: CCL-185), Colo-205 (ATCC: CCL-222), MDA-MB-231 (ATCC: HTB-26), OVCAR-3 (ATCC: HTB-161), OV-90 (ATCC: CRL.11732), OE19 (Sigma: 96071721), RT 112/84 (Sigma: 85061106).
On the day prior to adding compounds, HCC1954 AsPC-1, BxPC-3, HPAF-II, MiaPaCa2, PANC-1, Capan-1, Capan-2 and NCI-N87 cells were added to opaque-walled 96-well tissue culture-treated microtiter plates using complete growth medium at a density of 2500 cells/100 microlitre (uL) of medium. These adherant cell lines cells were incubated for one night at 37° C./5% CO2 to allow the cells to attach to the microtiter plate surface. On the day that compounds were added, Jurkat cells are added to separate 96-well microtiter plates at 2500 cells/100 uL using the same growth medium as HCC1954. Compound were first serially diluted using dimethyl sulfoxide, and then the prepared dilutions are added to complete growth medium at five-times the final concentration—compounds were then titrated 1:3, eight steps. A control with no compound (growth medium alone) was included on each microtiter plate in sextuplicate. The prepared compounds titrations were added (twenty-five uL/well) in triplicate. The cells and compound titrations were incubated at 37° C./5% CO2 for three nights. After the incubation, cell viability is measured using CellTiter-Glo® reagent by adding thirty uL of prepared CellTiter-Glo® to each assay well. The assay is incubated for at least twenty minutes in the dark prior to measuring emitted luminescence using a microplate luminometer (500 ms integration time). The collected relative luminescence units (RLU) are converted to % cytotoxicity using the Growth medium alone control mentioned above (% Cytotoxicity=1−[Well RLU/average medium alone control RLU]).
GraphPad Prism was used for generation of EC50 values using three parameter non-linear regression curve fitting.

Compound | EC50 [pM]
CN[C@H](C(=O)N[C@H](C(=O)N(C)[C@H](/C=C(\C)C(=O)NS(=O)(=O)Cc1cccnc1)C(C)C)C(C)(C)C)C(C)(C)c1ccccc1 [Compound 45, (S,E)-2,5-dimethyl-N-(pyridin-3-ylmethylsulfonyl)-4-((S)—N,3,3-trimethyl-2-((S)-3-methyl-2-(methylamino)-3-phenylbutanamido)butanamido)hex-2-enamide] | 869
CN[C@H](C(=O)N[C@H](C(=O)N(C)[C@H](/C=C(\C)C(=O)NS(=O)(=O)c1cccc(NC(=O)C(F)(F)F)c1)C(C)C)C(C)(C)C)C(C)(C)c1ccccc1 [Compound 47, (S,E)-2,5-dimethyl-N-(3-(2,2,2-trifluoroacetamido)phenylsulfonyl)-4-((S)—N,3,3-trimethyl-2-((S)-3-methyl-2-(methylamino)-3-phenylbutanamido)butanamido)hex-2-enamide] | 261
CN[C@H](C(=O)N[C@H](C(=O)N(C)[C@H](/C=C(\C)C(=O)NS(=O)(=O)c1cccc(N)c1)C(C)C)C(C)(C)C)C(C)(C)c1ccccc1 [Compound 48, (S,E)-N-(3-aminophenylsulfonyl)-2,5-dimethyl-4-((S)—N,3,3-trimethyl-2-((S)-3-methyl-2-(methylamino)-3-phenylbutanamido)butanamido)hex-2-enamide] | 208
CN[C@H](C(=O)N[C@H](C(=O)N(C)[C@H](/C=C(\C)C(=O)NS(=O)(=O)c1cccnc1)C(C)C)C(C)(C)C)C(C)(C)c1ccccc1 [Compound 49, (S,E)-2,5-dimethyl-N-(pyridin-3-ylsulfonyl)-4-((S)—N,3,3-trimethyl-2-((S)-3-methyl-2-(methylamino)-3-phenylbutanamido)butanamido)hex-2-enamide] | 2500
CN[C@H](C(=O)N[C@H](C(=O)N(C)[C@H](/C=C(\C)C(=O)NS(=O)(=O)c1cccs1)C(C)C)C(C)(C)C)C(C)(C)c1ccccc1 [Compound 50, (S,E)-2,5-dimethyl-N-(thiophen-2-ylsulfonyl)-4-((S)—N,3,3-trimethyl-2-((S)-3-methyl-2-(methylamino)-3-phenylbutanamido)butanamido)hex-2-enamide] | 171
CN[C@H](C(=O)N[C@H](C(=O)N(C)[C@H](/C=C(\C)C(=O)NS(=O)(=O)c1ccc(O)cc1)C(C)C)C(C)(C)C)C(C)(C)c1ccccc1 [Compound 51, (S,E)-N-(4-hydroxyphenylsulfonyl)-2,5-dimethyl-4-((S)—N,3,3-trimethyl-2-((S)-3-methyl-2-(methylamino)-3-phenylbutanamido)butanamido)hex-2-enamide] | 247
CN[C@H](C(=O)N[C@H](C(=O)N(C)[C@H](/C=C(\C)C(=O)NS(=O)(=O)Cc1ccc(C2(NC(=O)C(F)(F)F)CC2)cc1)C(C)C)C(C)(C)C)C(C)(C)c1ccccc1 [Compound 57, (S,E)-2,5-dimethyl-N-(4-(1-(2,2,2-trifluoroacetamido)cyclopropyl)benzylsulfonyl)-4-((S)—N,3,3-trimethyl-2-((S)-3-methyl-2-(methylamino)-3-phenylbutanamido)butanamido)hex-2-enamide] | 566
CN[C@H](C(=O)N[C@H](C(=O)N(C)[C@H](/C=C(\C)C(=O)NS(=O)(=O)Cc1ccc(C2(N)CC2)cc1)C(C)C)C(C)(C)C)C(C)(C)c1ccccc1 [Compound 58, (S,E)-N-(4-(1-aminocyclopropyl)benzylsulfonyl)-2,5-dimethyl-4-((S)—N,3,3-trimethyl-2-((S)-3-methyl-2-(methylamino)-3-phenylbutanamido)butanamido) hex-2-enamide] | 816

Same assay, conditions: Homo sapiens, Jurkat, Table 6; Compound Cytotoxicity on Jurkat; read-out: EC50

Compound | EC50 [pM]
CN[C@H](C(=O)N[C@H](C(=O)N(C)[C@H](/C=C(\C)C(=O)NS(=O)(=O)Cc1cccnc1)C(C)C)C(C)(C)C)C(C)(C)c1ccccc1 [Compound 45, (S,E)-2,5-dimethyl-N-(pyridin-3-ylmethylsulfonyl)-4-((S)—N,3,3-trimethyl-2-((S)-3-methyl-2-(methylamino)-3-phenylbutanamido)butanamido)hex-2-enamide] | 373
CN[C@H](C(=O)N[C@H](C(=O)N(C)[C@H](/C=C(\C)C(=O)NS(=O)(=O)c1ccc(C2(NC(=O)C(F)(F)F)CC2)cc1)C(C)C)C(C)(C)C)C(C)(C)c1ccccc1 [Compound 62, (S,E)-2,5-dimethyl-N-(4-(1-(2,2,2-trifluoroacetamido)cyclopropyl)phenylsulfonyl)-4-((S)—N,3,3-trimethyl-2-((S)-3-methyl-2-(methylamino)-3-phenylbutanamido)butanamido)hex-2-enamide] | 1200
CN[C@H](C(=O)N[C@H](C(=O)N(C)[C@H](/C=C(\C)C(=O)NS(=O)(=O)Cc1ccccc1C)C(C)C)C(C)(C)C)C(C)(C)c1ccccc1 [Compound 64, (S,E)-2,5-dimethyl-N-(2-methylbenzylsulfonyl)-4-((S)—N,3,3-trimethyl-2-((S)-3-methyl-2-(methylamino)-3-phenylbutanamido)butanamido)hex-2-enamide] | 138
CN[C@H](C(=O)N[C@H](C(=O)N(C)[C@H](/C=C(\C)C(=O)NS(=O)(=O)Cc1ccc(Cl)cc1)C(C)C)C(C)(C)C)C(C)(C)c1ccccc1 [Compound 66, (S,E)-N-(4-chlorobenzylsulfonyl)-2,5-dimethyl-4-((S)—N,3,3-trimethyl-2-((S)-3-methyl-2-(methylamino)-3-phenylbutanamido)butanamido)hex-2-enamide] | 145
CN[C@H](C(=O)N[C@H](C(=O)N(C)[C@H](/C=C(\C)C(=O)NS(=O)(=O)CCc1ccccc1)C(C)C)C(C)(C)C)C(C)(C)c1ccccc1 [Compound 67, (S,E)-2,5-dimethyl-N-(phenethylsulfonyl)-4-((S)—N,3,3-trimethyl-2-((S)-3-methyl-2-(methylamino)-3-phenylbutanamido)butanamido)hex-2-enamide] | 562
CN[C@H](C(=O)N[C@H](C(=O)N(C)[C@H](/C=C(\C)C(=O)NS(=O)(=O)Cc1ccc(Br)cc1)C(C)C)C(C)(C)C)C(C)(C)c1ccccc1 [Compound 68, (S,E)-N-(4-bromobenzylsulfonyl)-2,5-dimethyl-4-((S)—N,3,3-trimethyl-2-((S)-3-methyl-2-(methylamino)-3-phenylbutanamido)butanamido)hex-2-enamide] | 337
CN[C@H](C(=O)N[C@H](C(=O)N(C)[C@H](/C=C(\C)C(=O)NS(=O)(=O)Cc1ccc(C#N)cc1)C(C)C)C(C)(C)C)C(C)(C)c1ccccc1 [Compound 69, (S,E)-N-(4-cyanobenzylsulfonyl)-2,5-dimethyl-4-((S)—N,3,3-trimethyl-2-((S)-3-methyl-2-(methylamino)-3-phenylbutanamido)butanamido)hex-2-enamide] | 1560
CN[C@H](C(=O)N[C@H](C(=O)N(C)[C@H](/C=C(\C)C(=O)NS(=O)(=O)Cc1cccc([N+](=O)[O-])c1)C(C)C)C(C)(C)C)C(C)(C)c1ccccc1 [Compound 70, (S,E)-2,5-dimethyl-N-(3-nitrobenzylsulfonyl)-4-((S)—N,3,3-trimethyl-2-((S)-3-methyl-2-(methylamino)-3-phenylbutanamido)butanamido)hex-2-enamide] | 856
CN[C@H](C(=O)N[C@H](C(=O)N(C)[C@H](/C=C(\C)C(=O)NS(=O)(=O)Cc1ccc(C(C)(C)C)cc1)C(C)C)C(C)(C)C)C(C)(C)c1ccccc1 [Compound 71, (S,E)-N-(4-tert-butylbenzylsulfonyl)-2,5-dimethyl-4-((S)—N,3,3-trimethyl-2-((S)-3-methyl-2-(methylamino)-3-phenylbutanamido)butanamido)hex-2-enamide] | 1020

Same assay, conditions: Table 6; Compound Cytotoxicity on Jurkat; read-out: EC50

Compound | EC50 [pM]
CN[C@H](C(=O)N[C@H](C(=O)N(C)[C@H](/C=C(\C)C(=O)NS(=O)(=O)Cc1ccccc1[N+](=O)[O-])C(C)C)C(C)(C)C)C(C)(C)c1ccccc1 [Compound 72, (S,E)-2,5-dimethyl-N-(2-nitrobenzylsulfonyl)-4-((S)—N,3,3-trimethyl-2-((S)-3-methyl-2-(methylamino)-3-phenylbutanamido)butanamido)hex-2-enamide] | 531
